According to patent US20260028340A1 (Supernus Pharmaceuticals, Inc., priority 2023, published 2026):

Legend:
[1] = Storage stability in acetonitrile or acetonitrile/water solution at room temperature; format: physicochemical; conditions: for decomposition in acetonitrile/water: crude product in acetonitrile/water, kept at room temperature overnight
Experimental: Preparatory HPLC of the crude product gave a mixture of the desired compound in addition to some Compound A (formed during the HPLC separation). After the product was treated with dichloromethane, the solution was dried over MgSO4, and was evaporated to give 15 mg of the ether derivative I-5 as an oily solid (97.7% by HPLC). After the sample was stored for 2 days at room temperature (RT) in acetonitrile solution, it had decomposed to approximately 85% purity with the main byproduct being a ring-opened form of Compound A.
(§1) 3,3-dimethylacrylic acid (96 mg, 0.96 mmol) and HATU (366 mg, 0.96 mmol) were mixed in 2 mL of DMF and 280 μL of DIPEA was added to the mixture. After the addition of Compound A (183 mg, 0.64 mmol), the mixture was stirred for 2 min. Additional DIPEA (280 μL) was added to the solution, and the yellow solution was stirred at room temperature for 2 hr. After the addition of water, the mixture was extracted with EtOAc (4×). The extract was washed with brine (4×), was dried over MgSO4, and was evaporated. […] This material was purified by prep HPLC to obtain 58 mg of II-7 (86% pure) that contained a later eluting byproduct. A sample was assayed for stability in water (63% at the 24-hour time point) and in a pH 7.4 buffer (77% at the 24 hour time point).
Geranic acid ([…], 0.96 mmol) and HATU (366 mg, 0.96 mmol) were mixed in 2 mL of DMF. Following the addition of 280 μL of DIPEA to the solution, Compound A (180 mg, 0.64 mmol) was added to the solution, and the mixture was stirred for 2 min. Additional DIPEA (280 μL) was added, and the yellow solution was stirred at room temperature for 2 hr. Following the addition of water, the mixture was extracted with EtOAc (4×). The extract was washed with brine (4×), was dried over MgSO4, and was evaporated. The crude product II-9 appeared by HPLC to be over 70% in one peak.

[2] = Stability in water and in a pH 7.4 buffer; format: physicochemical; conditions: after 24 hours
Experimental: A sample of the 15 mg isolated material was evaluated for stability in water and in a pH 7.4 buffer. After 24 hours, the sample in water had 86% remaining and the sample in the pH 7.4 buffer had 92% remaining. The decomposition gave mainly the ring-opened Compound A as a byproduct.
as §1

| Structure (SMILES) | decomposition in acetonitrile/water [1] | remaining, stability in pH 7.4 buffer [2] | remaining, stability in water [2] | purity after storage in acetonitrile solution ([1]; stored for 2 days at room temperature in acetonitrile solution, initial 97.7% by HPLC) |
| --- | --- | --- | --- | --- |
| CC(C)=CC(=O)N1CCN=C1c1ccccc1C(=O)c1ccc(Cl)cc1 [II-7, 1-(2-(2-(4-chlorobenzoyl)phenyl)-4,5-dihydro-1H-imidazol-1-yl)-3-methylbut-2-en-1-one] | significant decomposition occurred | 77% | 63% |  |
| CC(C)=CCC/C(C)=C/C(=O)N1CCN=C1c1ccccc1C(=O)c1ccc(Cl)cc1 [II-9, (E)-1-(2-(2-(4-chlorobenzoyl)phenyl)-4,5-dihydro-1H-imidazol-1-yl)-3,7-dimethylocta-2,6-dien-1-one] | complete decomposition occurred |  |  |  |
| COC(=O)COC1(c2ccc(Cl)cc2)c2ccccc2C2=NCCN21 (stereo not shown) [Compound I-5, methyl 2-((5-(4-chlorophenyl)-2,5-dihydro-3H-imidazo[2,1-a]isoindol-5-yl)oxy)acetate] |  | 92% | 86% | approximately 85% |
